Assay results published in ChEMBL document CHEMBL4699598, “Discovery of Novel Substituted N-(4-Amino-2-chlorophenyl)-5-chloro-2-hydroxybenzamide Analogues as Potent Human Adenovirus Inhibitors” (J Med Chem, 2020).

Key:
[1] = test system: Human adenovirus 5; test: Antiviral activity against GFP-fused Human adenovirus 5 infected in 293beta5 cells assessed as inhibition of plaque formation incubated for 7 days by GFP reporter gene assay; format: functional, organism-based; conditions: Human mastadenovirus C, HEK293, 168 h
[2] = Cytotoxicity against human A549 cells assessed as reduction in cell viability incubated for 48 hrs by alamarBlue assay; format: cell-based
[3] = Selectivity index, ratio of CC50 for cytotoxicity against human A549 cells assessed as reduction in cell viability incubated for 48 hrs by alamarBlue assay to IC50 for antiviral activity against Human adenovirus 5 infected in 293beta5 cells assessed as inhibition of plaque formation incubated for 7 days by GFP reporter gene assay; format: toxicity, cell-based; conditions: read-out: Ratio CC50/IC50
[4] = test system: Human adenovirus 5; test: Antiviral activity against Human adenovirus 5 infected in 293beta5 cells assessed as inhibition of plaque formation at 10 uM incubated for 7 days by GFP reporter gene assay relative to control; format: functional; conditions: Human mastadenovirus C, HEK293, 168 h, time 7 day
[5] = test system: Human adenovirus 5; test: Antiviral activity against WT-Human adenovirus 5 infected in A549 cells assessed as fold reduction in virus yield at 10 fold of IC50 after 48 hrs endpoint dilution method; format: functional
[6] = test system: Human adenovirus 5; test: Antiviral activity against wild-type Human adenovirus 5 infected in human A549 cells assessed as inhibition of viral entry by measuring nuclear associated viral genome level at 10 fold IC50 incubated for 45 mins by RT-PCR analysis (reference value: 100 +/- 1.07 %); format: functional; set-up: scale not given: the % may be the effect or the level left; conditions: 0.75 h
[7] = test system: Human adenovirus 5; test: Antiviral activity against wild-type Human adenovirus 5 infected in human A549 cells assessed as inhibition of viral DNA replication by measuring number of viral DNA copies at 5 uM after 24 hrs by RT-qPCR analysis (reference value: 100 +/- 0.16 %); format: functional; set-up: scale not given: the % may be the effect or the level left
[8] = test system: Human adenovirus 5; test: Antiviral activity against Human adenovirus 5 infected in 293beta5 cells assessed as inhibition of virus infection at 10 fold IC50 measured after 60 mins by GFP reporter gene assay relative to control; format: functional, HEK293; conditions: 1 h
[9] = test system: Human betaherpesvirus 5; test: Antiviral activity against human cytomegalovirus infected in HFF cells assessed as inhibition of viral replication by measuring number of DNA copies at 5 uM incubated for 72 hrs by RT-PCR analysis (reference value: 100 +/- 25.56 %); format: functional; set-up: scale not given: the % may be the effect or the level left
[10] = test system: Human adenovirus 5; test: Antiviral activity against wild-type Human adenovirus 5 infected in human A549 cells assessed as inhibition of viral DNA replication by measuring number of viral DNA copies at […] after 24 hrs by RT-qPCR analysis (reference value: 100 +/- 0.16 %); format: functional; set-up: scale not given: the % may be the effect or the level left; conditions: dose 11.1 µM
[11] = test system: Human adenovirus 5; test: Antiviral activity against wild-type Human adenovirus 5 infected in human A549 cells assessed as inhibition of virus entry incubated for 48 hrs by fluorescence assay; format: functional, organism-based; conditions: Human mastadenovirus C, A549, 48 h
[12] = test system: Human betaherpesvirus 5; test: Antiviral activity against human cytomegalovirus infected in HFF cells assessed as inhibition of viral replication by measuring number of viral DNA copies at […] incubated for 72 hrs by RT-PCR analysis (reference value: 100 +/- 25.56 %); format: functional; set-up: scale not given: the % may be the effect or the level left; conditions: dose 11.1 µM
[13] = test system: Human adenovirus 5; test: Antiviral activity against wild-type Human adenovirus 5 infected in human A549 cells assessed as inhibition of viral DNA replication by measuring number of viral DNA copies at 7.8 uM after 24 hrs by RT-qPCR analysis (reference value: 100 +/- 0.16 %); format: functional; set-up: scale not given: the % may be the effect or the level left
[14] = test system: Human adenovirus 5; test: Antiviral activity against Human adenovirus 5 infected in 293beta5 cells assessed as inhibition of virus infection at 10 fold of IC50 measured at 0 min by GFP reporter gene assay relative to control; format: functional, HEK293
[15] = test system: Human betaherpesvirus 5; test: Antiviral activity against human cytomegalovirus infected in HFF cells assessed as inhibition of viral replication by measuring number of viral DNA copies at 7.8 uM incubated for 72 hrs by RT-PCR analysis (reference value: 100 +/- 25.56 %); format: functional; set-up: scale not given: the % may be the effect or the level left
[16] = test system: Human adenovirus 5; test: Antiviral activity against wild-type Human adenovirus 5 infected in human A549 cells assessed as inhibition of viral DNA replication by measuring number of viral DNA copies at 2.7 uM after 24 hrs by RT-qPCR analysis (reference value: 100 +/- 0.16 %); format: functional; set-up: scale not given: the % may be the effect or the level left
[17] = test system: Human adenovirus 5; test: Antiviral activity against Human adenovirus 5 infected in 293beta5 cells assessed as inhibition of virus infection at 10 fold IC50 measured after 5 mins by GFP reporter gene assay relative to control; format: functional, HEK293
[18] = test system: Human betaherpesvirus 5; test: Antiviral activity against human cytomegalovirus infected in HFF cells assessed as inhibition of viral replication by measuring number of viral DNA copies at 2.7 uM incubated for 72 hrs by RT-PCR analysis (reference value: 100 +/- 25.56 %); format: functional; set-up: scale not given: the % may be the effect or the level left
[19] = Toxicity against cyclophosphamide-immunosuppressed golden syrian hamster assessed as loss of body weight at 1 mg/kg, administered for 14 days; format: organism-based, Mesocricetus auratus; conditions: in vivo, 336 h, time 14 day
[20] = test system: Human adenovirus 5; test: Antiviral activity against wild-type Human adenovirus 5 infected in human A549 cells assessed as inhibition of viral DNA replication by measuring number of viral DNA copies at 9 uM after 24 hrs by RT-qPCR analysis (reference value: 100 +/- 0.16 %); format: functional; set-up: scale not given: the % may be the effect or the level left
[21] = test system: Human betaherpesvirus 5; test: Antiviral activity against human cytomegalovirus infected in HFF cells assessed as inhibition of viral replication by measuring number of viral DNA copies at 9 uM incubated for 72 hrs by RT-PCR analysis (reference value: 100 +/- 25.56 %); format: functional; set-up: scale not given: the % may be the effect or the level left
[22] = test system: Human adenovirus 5; test: Antiviral activity against wild-type Human adenovirus 5 infected in human A549 cells assessed as inhibition of viral DNA replication by measuring number of viral DNA copies at 12.7 uM after 24 hrs by RT-qPCR analysis (reference value: 100 +/- 0.16 %); format: functional; set-up: scale not given: the % may be the effect or the level left
[23] = test system: Human betaherpesvirus 5; test: Antiviral activity against human cytomegalovirus infected in HFF cells assessed as inhibition of viral replication by measuring number of viral DNA copies at 12.7 uM incubated for 72 hrs by RT-PCR analysis (reference value: 100 +/- 25.56 %); format: functional; set-up: scale not given: the % may be the effect or the level left

Row | Compound | IC50 [1] [µM] | CC50 at 48 h [2] [µM] | selectivity ratio at 48 h [3] | inhibition at 10 µM [4] [%] | also measured
1 | O=C(Nc1ccc(NC2CCCC2)cc1Cl)c1cc(Cl)ccc1O | 0.5 | 92.9 | 186 | 100 | fold change (FC) [5]: 17.1; Activity [6]: 98.84%; Activity [7]: 14.42%; inhibition (INH) [8]: >=50%; Activity [9]: 100%
2 | O=C(Nc1ccc(NCc2ccc(O)cc2)cc1Cl)c1cc(Cl)ccc1O | 1.11 | 116 | 104 | – | Activity [10]: 83.72%; fold change (FC) [5]: 17.4; IC50 [11]: 25 µM; Activity [6]: 11.56%; inhibition (INH) [8]: >=50%; Activity [12]: 15.71%
3 | O=C(Nc1ccc(NCc2ccc(O)nc2)cc1Cl)c1cc(Cl)ccc1O | 0.78 | 98.5 | 126 | 100 | Activity [13]: 53.62%; fold change (FC) [5]: 26.6; IC50 [11]: > 50 µM; Activity [6]: 13.6%; inhibition (INH) [14]: <50%; Activity [15]: 18.18%
4 | CC1(Nc2ccc(NC(=O)c3cc(Cl)ccc3O)c(Cl)c2)CCCC1 | 0.27 | 157 | 581 | 100 | fold change (FC) [5]: 52.6; IC50 [11]: 15.2 µM; Activity [6]: 53.7%; Activity [16]: 20.21%; inhibition (INH) [17]: <50%; Activity [18]: 91.25%
5 | O=C(Nc1ccc(NCC2CC2)cc1Cl)c1cc(Cl)ccc1O | 1.38 | 14.4 | 10.4 | 100 | –
6 | CN(C)c1ccc(NC(=O)c2cc(Cl)ccc2O)c(Cl)c1 | 1.92 | 85.1 | 44.3 | 100 | –
7 | O=C(Nc1ccc(NCc2cc(C(F)(F)F)cc(C(F)(F)F)c2)cc1Cl)c1cc(Cl)ccc1O | 1.12 | 92.8 | 82.9 | 100 | –
8 | O=C(Nc1ccc([N+](=O)[O-])cc1Cl)c1cc(Cl)ccc1O [NICLOSAMIDE] | 0.6 | – | – | 100 | Activity [19]: Non-Toxic; inhibition (INH) [8]: >=50%; Activity [9]: 1.7%
9 | CN(C)c1ccc(CNc2ccc(NC(=O)c3cc(Cl)ccc3O)c(Cl)c2)cc1 | 2.73 | 24.5 | 9 | 100 | –
10 | COc1ccc(CNc2ccc(NC(=O)c3cc(Cl)ccc3O)c(Cl)c2)cc1 | 3.61 | 80.7 | 22.4 | 100 | –
11 | CCCNc1ccc(NC(=O)c2cc(Cl)ccc2O)c(Cl)c1 | 5.04 | 22.5 | 4.5 | 100 | –
12 | CC(C)(C)OC(=O)NCCNc1ccc(NC(=O)c2cc(Cl)ccc2O)c(Cl)c1 | 2.78 | 25 | 9 | 100 | –
13 | CCCCCCC(C)Nc1ccc(NC(=O)c2cc(Cl)ccc2O)c(Cl)c1 (configuration not stated) | 0.32 | 23.5 | 73.4 | 100 | –
14 | CC(C)Nc1ccc(NC(=O)c2cc(Cl)ccc2O)c(Cl)c1 | 0.88 | 11 | 12.5 | 100 | –
15 | O=C(Nc1ccc(N(CC2CC2)CC2CC2)cc1Cl)c1cc(Cl)ccc1O | 0.62 | 12.8 | 20.7 | 100 | –
16 | CC(C)(CCO)Nc1ccc(NC(=O)c2cc(Cl)ccc2O)c(Cl)c1 | 0.9 | 170 | 188 | – | fold change (FC) [5]: 15.7; Activity [6]: 99.97%; inhibition (INH) [14]: <50%; Activity [20]: 65.04%; Activity [21]: 14.35%
17 | O=C(Nc1ccc(NCc2ccc(Cl)cc2)cc1Cl)c1cc(Cl)ccc1O | 1.2 | 59.7 | 49.7 | 100 | –
18 | CC1(ON(c2ccc(NC(=O)c3cc(Cl)ccc3O)c(Cl)c2)C2(C)CCCC2)CCCC1 | 0.74 | 18 | 24.3 | 100 | –
19 | O=C(Nc1ccc(NCc2cccnc2Cl)cc1Cl)c1cc(Cl)ccc1O | 4.78 | 100 | 21 | 100 | –
20 | CCCN(CCC)c1ccc(NC(=O)c2cc(Cl)ccc2O)c(Cl)c1 | 0.67 | 10.7 | 16 | 100 | –
21 | CC(C)(Cc1ccccc1)ON(c1ccc(NC(=O)c2cc(Cl)ccc2O)c(Cl)c1)C(C)(C)Cc1ccccc1 | 1.27 | 165 | 130 | 100 | Activity [22]: 2.37%; fold change (FC) [5]: 21.5; IC50 [11]: 34.1 µM; Activity [6]: 95.87%; inhibition (INH) [17]: <50%; Activity [23]: 9.15%
